Patent publication US5629298A, “Adenosine as a positive inotrop in the compromised heart” (University of Massachusetts Medical Center, priority 1995, dated 1997)
Where two headings read alike, the source gives them in different places.

Columns and labels:
[1] = system: ventricular myocyte membrane adenylyl cyclase; assay: Adenylyl cyclase activity of ventricular myocyte membranes; type: biochemical, rat
Protocol: After a 3-4 hour incubation period, myocytes were harvested by placing the culture dishes on ice; aspirating and discarding the culture medium; scraping the attached cells into 1 ml of ice cold buffer (pH 7.4) containing 10 mM HEPES and 1 mM dithiothreitol (DTT); and transferring the mixture to a 40 ml centrifuge tube. The culture dishes were rinsed twice with buffer, and the rinses were added to the centrifuge tube. The myocytes were centrifuged at 45,000 x g for 45 minutes and the supernatant was discarded. The pellet was resuspended in 40 mM HEPES (pH 7.4) to yield 3.5-4 mg protein/ml and homogenized with a small clearance Dounce tissue grinder (8 strokes). The membranes were centrifugated as described above, resuspended (3-4 mg protein/ml) in 40 mM HEPES (pH 7.4), and assayed for adenylyl cyclase activity immediately or stored at -80° C. and assayed within 10 days.
The assay system used to measure adenylyl cyclase activity minimizes the formation of endogenous adenosine. The assay used was essentially as described by Romano et al. (supra). Myocyte membranes (15-25 μg protein) were incubated in 50 μl of a buffer containing 40 mM HEPES (pH 7.4), 5 mM MgCl2, 1 mM DTT, 5.5 mM KCl, 0.1 mM 2'-deoxy-cAMP (dcAMP), 0.1 mM 2'-deoxy ATP (dATP), 20 mM phosphoenolpyruvate, 2 units pyruvate kinase, 0.25 units adenosine deaminase, 1 mM ascorbic acid, 100 mM NaCl, 0.1 mM ethyleneglycol-bis (β-aminoethylether) N,N,N',N',-tetroaceticacid (EGTA), 10 μM guanosine 5'-triphosphate (GTP), and ~2×10^6 counts/minutes of [α-^32 P]dATP for 20 minutes at 30° C. The reaction was stopped by adding 40 μl of a solution containing 2% sodium dodecyl sulfate (SDS), 45 mM ATP, 1.3 mM cAMP, and [^3 H]dcAMP (~4000 count/min) and by boiling for 2 minutes.

[2] = system: rat heart; assay: Isolated perfused heart, normoperfused or hypoperfused (mechanically depressed): LVP, +dP/dtmax, -dP/dtmax; conditions: for effect on the contractile variables (LVP, +dP/dtmax, -dP/dtmax) / activation at 0.01 µM: normoperfusion; for effect on the contractile variables (LVP, +dP/dtmax, -dP/dtmax) / increase in +dP/dtmax / increase in -dP/dtmax / increase in LVP: adenosine 2×10^-5 M, DPCPX 2×10^-7 M; for effect on the contractile variables (LVP, +dP/dtmax, -dP/dtmax): CGS-21680 2×10^-6 M; for activation at 0.01 µM: Rattus norvegicus, 5 seconds; for activation at 0.01 µM / increase in +dP/dtmax / increase in -dP/dtmax / increase in LVP: isoproterenol 10^-8 M; for increase in +dP/dtmax / increase in -dP/dtmax / increase in LVP: hypoperfusion (mechanically depressed heart)
Protocol: Male Sprague-Dawley rats (500-550 g) were anesthetized with pentobarbital (40 mg/kg, i.p.) and treated with heparin (500 units, i.p.) for 15 minutes. Hearts were excised, rinsed in iced physiological saline ("PS") and perfused with PS (37° C.) via an aortic cannula at a constant rate of 18-20 ml/min. Perfusion pressure ranged from 50 to 60 mm Hg. The PS contained: NaCl, 118 mM; KCl, 4.7 mM; CaCl2, 2.5 mM; NaHCO3, 25 mM; KH2 PO4, 1.2 mM; MgSO4 1.2 mM; glucose 10 mM; and pyruvate 1.8 mM. The pH was maintained at 7.4 by gassing the PS with a 95% O2 /5% CO2 gas mixture. Platinum wire electrodes were inserted into the right atrium to allow pacing of the heart (300 contractions per minute) throughout the perfusion period. Developed left ventricular pressure (LVP) was measured with a saline-filled balloon inserted into the lumen of the left ventricle via the left atrium and attached by a polyethylene cannula to a pressure transducer. The pressure signal was electronically differentiated to obtain the maximum rates of left ventricular pressure development (+dP/dtmax) and relaxation (-dP/dtmax). Balloon volume was varied until the maximal obtainable dP/dt was attained. This optimal preload, ranging from 5 to 10 mm Hg, was maintained constant, permitting isovolumic contraction of the heart. Aortic perfusion pressure was monitored with another pressure transducer. All the LVP, +dP/dtmax, -dP/dtmax and aortic perfusion data were continually recorded on a multichannel polygraph. At the end of the experiment, the wet heart weights were determined; they ranged from 1.4 to 1.8 g.
After instrumentation, the hearts were normoperfused at 18-20 ml/min for 20 minutes, resulting in an aortic perfusion pressure of 50-60 mm Hg. Isoproterenol, adenosine, CGS-21680, DPCPX, atenolol, or a combination of these agents was administered for 1 to 2 minutes, via the aortic perfusion cannula, at 1/100th the perfusion flow rate, to achieve the stated PS concentrations. Isoproterenol was administered for only 5 seconds. To cause mechanical depression of the perfused hearts, the perfusion flow was lowered 5-6 ml/min. The resulting aortic perfusion pressure decreased to 20-30 mm Hg. The various agents either alone or in combination were administered via the PS to the hypoperfused hearts at 1/100th the perfusion flow rate, at the concentrations indicated.

With CCNC(=O)[C@H]1O[C@@H](n2cnc3c(N)nc(NCCc4ccc(CCC(=O)O)cc4)nc32)[C@H](O)[C@@H]1O [CGS-21680, 2-p-(2-carboxy-ethyl)phenethyl-amino-5'-N-ethylcarboxamido-adenosine] the “increase in cyclase activity” value ([1]; CGS-21680 in the presence of 0.1 μM DPCPX) was 49%, the EC50 ([1]; in the presence of 0.1 μM DPCPX, read-out: EC50 for increase of adenylyl cyclase) was 260 ± 80 nM and the adenylyl cyclase response ([1]; no DPCPX, activating at 1-10 μM, reducing this activation at 0.1-1 mM) was “biphasic response”. The “effect on the contractile variables (LVP, +dP/dtmax, -dP/dtmax)” value [2] was “without affect”.
CC(C)NCC(O)c1ccc(O)c(O)c1 (stereo not drawn) [ISO, isoproterenol] was tested, and the “increase in adenylyl cyclase activity” value ([1]; ISO at 0.1 μM in the presence of 1 μM PIA) was 23%, the “increase in adenylyl cyclase activity” value ([1]; ISO at 0.1 μM, in the absence of PIA) was 88% and the “ISO-induced increase in adenylyl cyclase activity” value ([1]; ISO at 0.1 μM, with PIA and DPCPX at 0.1 μM) was 70%. The activation at 0.01 µM ([2]; read-out: increase in +dP/dtmax) was 167%, the activation at 0.01 µM ([2]; read-out: increase in -dP/dtmax) was 216% and the activation at 0.01 µM ([2]; read-out: increase in LVP) was 119%. For the same compound, the “increase in +dP/dtmax” value [2] was 114%, the “increase in -dP/dtmax” value [2] was 225% and the “increase in LVP” value [2] was 171%.
In the case of Nc1ncnc2c1ncn2[C@@H]1O[C@H](CO)[C@@H](O)[C@H]1O [adenosine], the “adenylyl cyclase activity above basal levels” value ([1]; adenosine at 0 to 1 mM, absence or presence of 1 μM DPCPX, ventricular myocyte membranes) is reported as “did not increase”, the “increase in +dP/dtmax” value [2] is reported as 25% and the “increase in -dP/dtmax” value [2] is reported as 33%. The “increase in LVP” value [2] was 26% and the “effect on the contractile variables (LVP, +dP/dtmax, -dP/dtmax)” value [2] was “did not affect”.
